Measured values taken from ChEMBL document CHEMBL1148663, “High-throughput screening for Hsp90 ATPase inhibitors” (Bioorg Med Chem Lett, 2006).

Legend:
SK-BR-3 = assay: Antiproliferative activity against human SKBr3 cells; type: functional, cell-based
Heat shock protein HSP90 = Heat shock protein HSP90 (Homo sapiens, UniProt P07900+P08238); assay: Inhibition of Hsp90 by recombinant ATPase assay; type: functional
[1] = Homo sapiens, SK-BR-3, read-out: IC50

IC50 (SK-BR-3; sk-br-3) | IC50 (Heat shock protein HSP90) | IC50 (SK-BR-3; [1]) | Compound
Not Active | 3 µM | – | COc1ccc(O)c(-c2c[nH]nc2-c2cccs2)c1
– | 5.4 µM | 48 µM | COc1cc(C2CC(c3ccccc3O)=NN2)ccc1O (stereo not given)
– | 2.7 µM | 66 µM | CC1(C)CC2=Nc3ccccc3NC(c3cccc(O)c3O)C2=C(O)C1 (stereo not given)
Not Active | 7 µM | – | Cc1nc(N)sc1-c1csc(Nc2ccccn2)n1
Not Active | 2.5 µM | – | COc1cccc(C(=O)Nc2ccc(O)c(C)c2)c1
Not Active | 2.3 µM | – | Cc1cc(O)nc(SCC(=O)c2ccc(O)c(O)c2)n1

More lines, now with the values behind:

Compound | IC50 (SK-BR-3; sk-br-3) | IC50 (Heat shock protein HSP90) | IC50 (SK-BR-3; [1])
O=c1c(Oc2ccc(F)cc2)coc2c(O)c(O)ccc12 | Not Active | 3.2 µM | –
O=C1CC(Nc2ccc(N3CCOCC3)cc2)C(=O)N1Cc1ccccc1 (stereo not given) | Not Active | 1.9 µM | –
O=S(=O)(Nc1ccc(Cl)cc1O)c1ccccc1 | – | 2 µM | 75 µM
O=C1CC(=O)N(c2cccc(Cl)c2)N1 | Not Active | 4.1 µM | –
